Test system: lymphocytic leukemia P388
Assay: Therapeutical effect against lymphocytic leukemia P388
Assay type: in vivo, male CDF₁ mice
Details: dose 6 mg/kg intraperitoneally
Protocol: Five male CDF₁ mice each having a weight of about 22 g were used for each group as test animals, and 1 x 10⁶ cells of lymphocytic leukemia P388 were implanted intraperitoneally in the test animals. 24 hours after implantation, 0.2 mℓ of a phosphate buffer saline (hereinafter referred to as PBS) containing DC-102 was intraperitoneally administered. For comparison, 0.2 mℓ of PBS solution containing mitomycin C was intraperitoneally administered 24 hours after implantation of the tumor cells. The mean survival time (MST) after implantation and increased life span (ILS) represented by T/C (T: MST for test groups; C: MST for control group) are shown in Table 3.

## CO[C@@]12[C@H](COC(N)=O)C3=C(C(=O)C(C)=C(N)C3=O)N1C[C@@H]1N[C@@H]12 [Mitomycin C, mitomycin C]
24 hours after implantation of 1 x 10⁶ P388 cells
  MST: 17.2 days
T: MST for test groups, C: MST for control group
  ILS (T/C): 166

— patent EP0264138B1, “Novel compound DC-102 and process for production thereof” (KYOWA HAKKO KOGYO CO., LTD., priority 1986, dated 1988)
